According to PubChem BioAssay AID274 (DTP/NCI, 2004):
Several values for one entry are separate records, joined by “and”; a condition that tells them apart may be missing. Identical values can stand only once. Inconclusive results and toxic doses are left out. The calls were made as follows: active = survival T/C of 150% or more; inactive = T/C below 125% in these data.

Test system: BDF1 mice, Lewis lung carcinoma iv, survival T/C
Experiment: NCI In Vivo Anticancer Drug Screen. Data for tumor model Lewis Lung Carcinoma (intravenous) in B6D2F1 (BDF1) mice
Conditions: endpoint: median survival time, schedule: Q01DX009 (ip), higher = longer survival
Description: The antitumor activity of compounds was measured in mice bearing transplantable tumors. Survival or tumor size were measured and the results are expressed as the measurement made in the treated group (T) divided by the measurement made in the vehicle treated control group (C). The tumor model used in this assay is Lewis Lung Carcinoma (intravenous) in B6D2F1 (BDF1) mice

[1] = dose: 16.0 mg/kg/injection, vehicle: saline
[2] = dose: 32.0 mg/kg/injection, vehicle: saline
[3] = dose: 100.0 mg/kg/injection, vehicle: saline with Tween-80
[4] = dose: 200.0 mg/kg/injection, vehicle: saline with Tween-80
[5] = dose: 100.0 mg/kg/injection, vehicle: saline
[6] = dose: 3.0 mg/kg/injection, vehicle: saline
[7] = dose: 3.12 mg/kg/injection, vehicle: saline
[8] = dose: 0.78 mg/kg/injection, vehicle: saline
[9] = dose: 1.56 mg/kg/injection, vehicle: saline
[10] = dose: 200.0 mg/kg/injection, vehicle: saline

Measured: T/C

[Cl][Mn][Cl]
inactive: dose: 1.0 mg/kg/injection, vehicle: saline 109 % of control | dose: 2.0 mg/kg/injection, vehicle: saline 99 % of control | dose: 4.0 mg/kg/injection, vehicle: saline 105 % of control and 90 % of control | dose: 8.0 mg/kg/injection, vehicle: saline 101 % of control and 121 % of control | [1] 91 % of control and 101 % of control | [2] 94 % of control and 98 % of control | dose: 64.0 mg/kg/injection, vehicle: saline 96 % of control and 108 % of control

CCCCOCN(COCCCC)C(C)Cc1ccccc1 (centres undefined)
inactive: dose: 12.5 mg/kg/injection, vehicle: saline with Tween-80 102 % of control | dose: 25.0 mg/kg/injection, vehicle: saline with Tween-80 96 % of control | dose: 50.0 mg/kg/injection, vehicle: saline with Tween-80 95 % of control | [3] 100 % of control | [4] 101 % of control

O=c1[nH]c(=O)n(C2CC(O)C(CO)O2)cc1I (centres undefined)
inactive: [3] 99 % of control | [4] 108 % of control

CC(CNC(=O)CCOS(C)(=O)=O)NC(=O)CCOS(C)(=O)=O (centres undefined)
inactive: [5] 106 % of control

O=C(NCCCN1CC1)C(=O)NCCCN1CC1
inactive: dose: 0.75 mg/kg/injection, vehicle: saline 110 % of control | dose: 1.5 mg/kg/injection, vehicle: saline 114 % of control | [6] 120 % of control

C/C=C(\C)c1cc(=O)c2c(C)cc3c(c2o1)C(=O)c1c(O)c(C2CC(C)(N(C)C)C(OC(C)=O)C(C)O2)cc(C2CC(N(C)C)C(O)C(C)O2)c1C3=O (centres undefined)
inactive: dose: 0.15 mg/kg/injection, vehicle: saline 104 % of control | dose: 0.31 mg/kg/injection, vehicle: saline 101 % of control | dose: 0.62 mg/kg/injection, vehicle: saline 107 % of control | dose: 1.25 mg/kg/injection, vehicle: saline 98 % of control | dose: 2.5 mg/kg/injection, vehicle: saline 103 % of control | dose: 5.0 mg/kg/injection, vehicle: saline 119 % of control

Nc1nc2c(ncn2C2OC(CO)C(O)C2N)c(=O)[nH]1 (centres undefined)
inactive: dose: 3.0 mg/kg/injection, vehicle: saline with Tween-80 101 % of control | dose: 6.0 mg/kg/injection, vehicle: saline with Tween-80 110 % of control | dose: 12.0 mg/kg/injection, vehicle: saline with Tween-80 108 % of control | dose: 24.0 mg/kg/injection, vehicle: saline with Tween-80 99 % of control

[Cl][Sn]([c]1ccccc1)[c]1ccccc1
inactive: [7] 104 % of control | dose: 6.25 mg/kg/injection, vehicle: saline 97 % of control | dose: 12.5 mg/kg/injection, vehicle: saline 98 % of control

ClCC[Se](Cl)(Cl)c1ccccc1
inactive: [8] 98 % of control | [9] 109 % of control | [6] 114 % of control

Nc1ncnc2c1ncn2C1OC(COP(=O)(O)O)C(O)C1O (centres undefined)
inactive: dose: 12.5 mg/kg/injection, vehicle: water 104 % of control | dose: 25.0 mg/kg/injection, vehicle: water 112 % of control | dose: 50.0 mg/kg/injection, vehicle: water 100 % of control | [5] 97 % of control | dose: 100.0 mg/kg/injection, vehicle: water 103 % of control | [10] 118 % of control | dose: 200.0 mg/kg/injection, vehicle: water 100 % of control | dose: 400.0 mg/kg/injection, vehicle: saline 96 % of control | dose: 800.0 mg/kg/injection, vehicle: saline 108 % of control

O=S(=O)(O)O
inactive: dose: 1.0 mg/kg/injection, vehicle: saline with Tween-80 91 % of control | dose: 2.0 mg/kg/injection, vehicle: saline with Tween-80 86 % of control | dose: 4.0 mg/kg/injection, vehicle: saline with Tween-80 86 % of control | dose: 8.0 mg/kg/injection, vehicle: saline with Tween-80 97 % of control

Cc1c2ccncc2c(C)c2c1[nH]c1ccccc12
inactive: dose: 6.25 mg/kg/injection, vehicle: Klucel (hydroxypropylcellulose) (HPC) 111 % of control | dose: 12.5 mg/kg/injection, vehicle: Klucel (hydroxypropylcellulose) (HPC) 93 % of control | dose: 25.0 mg/kg/injection, vehicle: Klucel (hydroxypropylcellulose) (HPC) 105 % of control

Nc1ccnc(=O)[nH]1
inactive: dose: 32.0 mg/kg/injection, vehicle: Klucel (hydroxypropylcellulose) (HPC) 111 % of control | dose: 32.0 mg/kg/injection, vehicle: saline with Tween-80 103 % of control | dose: 64.0 mg/kg/injection, vehicle: Klucel (hydroxypropylcellulose) (HPC) 98 % of control | dose: 128.0 mg/kg/injection, vehicle: Klucel (hydroxypropylcellulose) (HPC) 95 % of control | dose: 256.0 mg/kg/injection, vehicle: Klucel (hydroxypropylcellulose) (HPC) 102 % of control | dose: 256.0 mg/kg/injection, vehicle: saline with Tween-80 119 % of control | dose: 512.0 mg/kg/injection, vehicle: Klucel (hydroxypropylcellulose) (HPC) 86 % of control | dose: 512.0 mg/kg/injection, vehicle: saline with Tween-80 107 % of control

Nc1ccn(C2OC(COP(=O)(O)O)C(O)C2O)c(=O)n1 (centres undefined)
inactive: [1] 121 % of control | [2] 106 % of control

CN(C)C(=O)c1cccc(COc2ccc(N3C(N)=NC(N)=NC3(C)C)cc2Cl)c1
inactive: dose: 0.09 mg/kg/injection, vehicle: saline 95 % of control | dose: 0.19 mg/kg/injection, vehicle: saline 108 % of control | dose: 0.39 mg/kg/injection, vehicle: saline 95 % of control | [8] 101 % of control | [9] 92 % of control | [7] 118 % of control

CNC=O
inactive: dose: 100.0 mg/kg/injection, vehicle: saline sonified 106 % of control | dose: 200.0 mg/kg/injection, vehicle: saline sonified 114 % of control | dose: 400.0 mg/kg/injection, vehicle: saline sonified 115 % of control

COC1C(CO)OC(n2cnc3c(=S)nc(N)[nH]c32)C1O (centres undefined)
inactive: dose: 50.0 mg/kg/injection, vehicle: Klucel (hydroxypropylcellulose) (HPC) 97 % of control | dose: 100.0 mg/kg/injection, vehicle: Klucel (hydroxypropylcellulose) (HPC) 108 % of control

c1cc2n(n1)CCN2
inactive: dose: 50.0 mg/kg/injection, vehicle: saline 105 % of control | [5] 104 % of control | [10] 86 % of control
